According to US5763477A, “Taxane derivatives from 14-β-hydroxy-10 deacetylbaccatin III” (Dr. Reddy's Research Foundation, priority 1994, dated 1998):
Read-outs that look alike come from different tables or passages of the source.

Experiments:
Assay type in all cases: cell-based
[1] = test system: SR; assay: In vitro anti-cancer activity, leukemia, cell line SR; details: Homo sapiens
From the text: (§1) In particular, these compounds are related to taxol, the recently FDA approved anticancer drug, and its various analogues having an additional hydroxyl group at C-14 position of the taxane skeleton. […] Selectivity and sensitivity were particularly good at 0.01 to 1 μm concentrations at G150 level (concentrations of the agent in the assay that produced 50 0 growth inhibition).
(§2) IN VITRO ANTI-CANCER ACTIVITY DATA OF 7,10-DIMETHYLACETONIDO 14-HYDROXY TAXOL (Compound 23) ON LEUKEMIA, OVARIAN AND BREAST CANCER CELL LINES IN COMPARISON TO TAXOL
(§3) All the values are given in μm concentrations:
(§4) The notations GI50, TGI refer to the concentrations of the agent in the assay that produced 50% growth inhibition, total growth inhibition respectively.

[2] = test system: HL60; assay: In vitro anti-cancer activity, leukemia, cell line HL60; details: Homo sapiens, HL-60
From the text: as §1, §2, §3, §4

[3] = test system: K-562; assay: In vitro anti-cancer activity, leukemia, cell line K-562; details: Homo sapiens, K562
From the text: as §1, §2, §3, §4

[4] = test system: Molt-4; assay: In vitro anti-cancer activity, leukemia, cell line Molt-4; details: Homo sapiens
From the text: as §1, §2, §3, §4

[5] = test system: RPMI-8226; assay: In vitro anti-cancer activity, leukemia, cell line RPMI-8226; details: Homo sapiens
From the text: as §1, §2, §3, §4

[6] = test system: HCT 116; assay: In vitro anti-cancer activity, colon cancer, cell line HCT 116; details: Homo sapiens
[7] = test system: HCT 15; assay: In vitro anti-cancer activity, colon cancer, cell line HCT 15; details: Homo sapiens
[8] = test system: HT-29; assay: In vitro anti-cancer activity, colon cancer, cell line HT-29; details: Homo sapiens
[9] = test system: KM12; assay: In vitro anti-cancer activity, colon cancer, cell line KM12; details: Homo sapiens
[10] = test system: SW 620; assay: In vitro anti-cancer activity, colon cancer, cell line SW 620; details: Homo sapiens
From the text: as §1, §2, §3, §4

[11] = test system: IGR-OV1; assay: In vitro anti-cancer activity, ovarian cancer, cell line IGR-OV1; details: Homo sapiens, IGROV-1
From the text: as §1, §2, §3, §4

[12] = test system: OVCAR3; assay: In vitro anti-cancer activity, ovarian cancer, cell line OVCAR3; details: Homo sapiens, OVCAR-3
From the text: as §1, §2, §3, §4

[13] = test system: OVCAR4; assay: In vitro anti-cancer activity, ovarian cancer, cell line OVCAR4; details: Homo sapiens, OVCAR-4
From the text: as §1, §2, §3, §4

[14] = test system: OVCAR5; assay: In vitro anti-cancer activity, ovarian cancer, cell line OVCAR5; details: Homo sapiens, OVCAR-5
From the text: as §1, §2, §3, §4

[15] = test system: MCF7; assay: In vitro anti-cancer activity, breast cancer, cell line MCF7; details: Homo sapiens
From the text: as §1, §2, §3, §4

[16] = test system: MDA-MB 231; assay: In vitro anti-cancer activity, breast cancer, cell line MDA-MB 231; details: Homo sapiens
From the text: as §1, §2, §3, §4

[17] = test system: H5578T; assay: In vitro anti-cancer activity, breast cancer, cell line H5578T
From the text: as §1, §2, §3, §4

[18] = test system: MDA-MB 435; assay: In vitro anti-cancer activity, breast cancer, cell line MDA-MB 435; details: Homo sapiens
From the text: as §1, §2, §3, §4

[19] = test system: BT 549; assay: In vitro anti-cancer activity, breast cancer, cell line BT 549; details: Homo sapiens
From the text: as §1, §2, §3, §4

[20] = test system: MDA-N; assay: In vitro anti-cancer activity, breast cancer, cell line MDA-N; details: Homo sapiens
From the text: as §1, §2, §3, §4

[21] = test system: T47D; assay: In vitro anti-cancer activity, breast cancer, cell line T47D; details: Homo sapiens
From the text: as §1, §2, §3, §4

[22] = test system: leukemia, colon cancer and ovarian cancer cell lines; assay: Selectivity and sensitivity (National Cancer Institute protocols); details: towards leukemia
From the text: as §1

[23] = test system: three leukemia cell lines; assay: Activity on three leukemia cell lines (National Cancer Institute protocols)
From the text: as §1

[24] = test system: three ovarian cancer cell lines; assay: Activity on three ovarian cancer cell lines (National Cancer Institute protocols)
From the text: as §1

[25] = read-out: TGI (total growth inhibition)
[26] = breast cancer, read-out: TGI (total growth inhibition)

Structure (SMILES): CC(=O)O[C@H]1C(=O)[C@@]2(C)[C@H]([C@H](OC(=O)c3ccccc3)[C@]3(O)C[C@H](OC(=O)[C@H](O)[C@@H](NC(=O)c4ccccc4)c4ccccc4)C(C)=C1C3(C)C)[C@]1(OC(C)=O)CO[C@@H]1C[C@@H]2O [Taxol, reference compound]
- GI50 [1]: 0.033 µM
- GI50 [2]: 0.01 µM
- GI50 [3]: 0.015 µM
- GI50 ([4]; MOLT-4): 0.053 µM
- GI50 [5]: 0.006 µM
- GI50 ([6]; HCT-116): 0.019 µM
- GI50 ([7]; HCT-15): 0.57 µM
- GI50 [8]: 0.008 µM
- GI50 [9]: 0.016 µM
- GI50 ([10]; SW-620): 0.02 µM
- GI50 [11]: 0.028 µM
- GI50 [12]: 0.022 µM
- GI50 [13]: 0.38 µM
- GI50 [14]: 0.075 µM
- GI50 ([15]; MCF7): 0.009 µM
- IC (total growth inhibition) ([15]; MCF7, read-out: TGI (total growth inhibition)): 1 µM
- GI50 ([16]; MDA-MB-231): 0.1 µM
- IC (total growth inhibition) ([16]; MDA-MB-231, read-out: TGI (total growth inhibition)): 0.67 µM
- GI50 [17]: 0.012 µM
- TGI (total growth inhibition) [17, 25]: 0.15 µM
- GI50 ([18]; MDA-MB-435): 0.006 µM
- IC (total growth inhibition) ([18]; MDA-MB-435, read-out: TGI (total growth inhibition)): 0.025 µM
- GI50 ([19]; BT-549): 0.06 µM
- IC (total growth inhibition) ([19]; BT-549, read-out: TGI (total growth inhibition)): 0.7 µM
- GI50 [20]: 0.004 µM
- TGI (total growth inhibition concentration) [20, 25]: 0.015 µM
- GI50 [21]: 0.109 µM
- TGI (total growth inhibition) [21, 25]: 1 µM

Structure (SMILES): CC(=O)O[C@@]12CO[C@@H]1C[C@@H]1OC(C)(C)O[C@H]3C(=O)[C@@]1(C)[C@@H]2[C@H](OC(=O)c1ccccc1)[C@]1(O)[C@@H](O)[C@H](OC(=O)[C@H](O)[C@@H](NC(=O)c2ccccc2)c2ccccc2)C(C)=C3C1(C)C [Compound 23, 7,10-dimethyl acetonido-14-hydroxy taxol]
- GI50 ([1]; leukemia, read-out: GI50): 0.084 µM
- GI50 ([2]; leukemia, HL60, read-out: GI50): 0.044 µM
- GI50 ([3]; leukemia, K-562, read-out: GI50): 0.247 µM
- GI50 ([4]; leukemia, Molt-4, read-out: GI50): 0.267 µM
- GI50 ([5]; leukemia, read-out: GI50): 0.057 µM
- GI50 ([6]; colon cancer, HCT 116, read-out: GI50): 0.228 µM
- GI50 ([7]; colon cancer, HCT 15, read-out: GI50): 2.14 µM
- GI50 ([8]; colon cancer, read-out: GI50): 0.079 µM
- GI50 ([9]; colon cancer, read-out: GI50): 0.077 µM
- GI50 ([10]; colon cancer, SW 620, read-out: GI50): 0.131 µM
- GI50 ([11]; ovarian cancer, IGR-OV1, read-out: GI50): 0.066 µM
- GI50 ([12]; ovarian cancer, OVCAR3, read-out: GI50): 0.131 µM
- GI50 ([13]; ovarian cancer, OVCAR4, read-out: GI50): 1.86 µM
- GI50 ([14]; ovarian cancer, OVCAR5, read-out: GI50): 0.77 µM
- GI50 ([15]; breast cancer, MCF7, read-out: GI50): 0.07 µM
- IC (total growth inhibition) ([15]; breast cancer, MCF7, read-out: TGI (total growth inhibition)): > 30 µM
- GI50 ([16]; breast cancer, MDA-MB 231, read-out: GI50): 0.5 µM
- IC (total growth inhibition) ([16]; breast cancer, MDA-MB 231, read-out: TGI (total growth inhibition)): > 30 µM
- GI50 ([17]; breast cancer, H5578T, read-out: GI50): 0.137 µM
- IC (total growth inhibition) ([17]; breast cancer, H5578T, read-out: TGI (total growth inhibition)): 0.89 µM
- GI50 ([18]; breast cancer, MDA-MB 435, read-out: GI50): 0.03 µM
- IC (total growth inhibition) ([18]; breast cancer, MDA-MB 435, read-out: TGI (total growth inhibition)): 0.12 µM
- GI50 ([19]; breast cancer, BT 549, read-out: GI50): 0.443 µM
- IC (total growth inhibition) ([19]; breast cancer, BT 549, read-out: TGI (total growth inhibition)): 11.2 µM
- GI50 ([20]; breast cancer, read-out: GI50): 0.033 µM
- IC (total growth inhibition) [20, 26]: 0.12 µM
- GI50 ([21]; breast cancer, read-out: GI50): 0.158 µM
- IC (total growth inhibition) [21, 26]: 17.7 µM
- selectivity and sensitivity [22]: good selectivity and sensitivity
- IC50 [23]: < 0.1 µM
- IC50 [24]: < 1 µM
